Assay results published in PubChem BioAssay AID256 (DTP/NCI, 2004).
Inconclusive results and toxic doses are left out. The calls were made as follows: active = survival T/C of 150% or more; inactive = T/C below 125% in these data.

Test system: CD2F1 mice, L1210 leukemia ip, survival T/C
Experiment: NCI In Vivo Anticancer Drug Screen. Data for tumor model L1210 Leukemia (intraperitoneal) in CD2F1 (CDF1) mice
Details: higher = longer survival
How it was run: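 Each value reflects a quotient of treated over vehicle control outcomes in mice with a transplanted tumor.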

[1] = endpoint: mean survival time, dose: 50.0 mg/kg/injection, schedule: Q01DX009 (ip), vehicle: saline with Tween-80
[2] = endpoint: mean survival time, dose: 100.0 mg/kg/injection, schedule: Q04DX003 (ip), vehicle: saline with Tween-80
[3] = endpoint: mean survival time, dose: 200.0 mg/kg/injection, schedule: Q04DX003 (ip), vehicle: saline with Tween-80
[4] = endpoint: mean survival time, dose: 75.0 mg/kg/injection, schedule: Q01DX001 (ip), vehicle: saline
[5] = endpoint: mean survival time, dose: 150.0 mg/kg/injection, schedule: Q01DX001 (ip), vehicle: saline
[6] = endpoint: mean survival time, dose: 100.0 mg/kg/injection, schedule: Q01DX009 (ip), vehicle: saline with Tween-80
[7] = endpoint: mean survival time, dose: 200.0 mg/kg/injection, schedule: Q01DX009 (ip), vehicle: saline with Tween-80

Measured: T/C

NC(=O)c1ncn(C2CC3[O][Sn]([c]4ccccc4)([c]4ccccc4)[O]CC3O2)n1 (configuration not stated)
inactive: endpoint: mean survival time, dose: 12.5 mg/kg/injection, schedule: Q01DX005 (ip), vehicle: distilled water + Tween-80 101 % of control | endpoint: mean survival time, dose: 25.0 mg/kg/injection, schedule: Q01DX005 (ip), vehicle: distilled water + Tween-80 97 % of control | endpoint: mean survival time, dose: 100.0 mg/kg/injection, schedule: Q01DX005 (ip), vehicle: distilled water + Tween-80 88 % of control | endpoint: mean survival time, dose: 200.0 mg/kg/injection, schedule: Q01DX005 (ip), vehicle: distilled water + Tween-80 95 % of control

Nc1ccc2cc(O)ccc2c1
inactive: endpoint: mean survival time, dose: 12.5 mg/kg/injection, schedule: Q01DX009 (ip), vehicle: saline with Tween-80 91 % of control | endpoint: mean survival time, dose: 25.0 mg/kg/injection, schedule: Q01DX009 (ip), vehicle: saline with Tween-80 98 % of control | [1] 95 % of control

O=C(Nc1nc2ccccc2s1)c1cc2ccccc2cc1O
inactive: [2] 87 % of control | [3] 98 % of control | endpoint: mean survival time, dose: 400.0 mg/kg/injection, schedule: Q04DX003 (ip), vehicle: saline with Tween-80 91 % of control

Cc1ccc([Si](C)(C)c2ccccc2)cc1
inactive: [4] 97 % of control | [5] 101 % of control

CCN(CC)C(C)COC(=O)c1ccc(N)cc1 (configuration not stated)
inactive: endpoint: mean survival time, dose: 12.5 mg/kg/injection, schedule: Q04DX003 (ip), vehicle: saline 103 % of control | endpoint: mean survival time, dose: 25.0 mg/kg/injection, schedule: Q04DX003 (ip), vehicle: saline 103 % of control | endpoint: mean survival time, dose: 50.0 mg/kg/injection, schedule: Q04DX003 (ip), vehicle: saline 111 % of control

O=C(O)CCC(Cc1ccccc1)C(=O)O (configuration not stated)
inactive: [6] 97 % of control | [7] 94 % of control | endpoint: mean survival time, dose: 400.0 mg/kg/injection, schedule: Q01DX009 (ip), vehicle: saline with Tween-80 86 % of control

CCCCCCCCCCCCCC[N+]1(C)CCC[N+](C)(CCCCCCCCCCCCCC)CC1 (configuration not stated)
inactive: endpoint: mean survival time, dose: 100.0 mg/kg/injection, schedule: Q04DX003 (ip), vehicle: other 103 % of control | endpoint: mean survival time, dose: 200.0 mg/kg/injection, schedule: Q04DX003 (ip), vehicle: other 88 % of control

CCCC/C=C/C1CCCCO1 (configuration not stated)
inactive: [1] 94 % of control | [6] 97 % of control | [7] 105 % of control

Nc1ccn(C2OC3COC2C3O)c(=O)n1 (configuration not stated)
inactive: endpoint: mean survival time, dose: 12.5 mg/kg/injection, schedule: Q01DX005 (ip), vehicle: water 101 % of control | endpoint: mean survival time, dose: 25.0 mg/kg/injection, schedule: Q01DX005 (ip), vehicle: water 101 % of control | endpoint: mean survival time, dose: 50.0 mg/kg/injection, schedule: Q01DX005 (ip), vehicle: water 102 % of control | endpoint: mean survival time, dose: 100.0 mg/kg/injection, schedule: Q01DX005 (ip), vehicle: water 101 % of control | endpoint: mean survival time, dose: 200.0 mg/kg/injection, schedule: Q01DX005 (ip), vehicle: water 107 % of control

CN(C)C1c2ccccc2-c2ccc(NC(=O)C(F)(F)F)cc21 (configuration not stated)
inactive: endpoint: mean survival time, dose: 50.0 mg/kg/injection, schedule: Q01DX001 (ip), vehicle: carboxymethylcellulose (CMC) 107 % of control | endpoint: mean survival time, dose: 100.0 mg/kg/injection, schedule: Q01DX001 (ip), vehicle: carboxymethylcellulose (CMC) 92 % of control | endpoint: mean survival time, dose: 200.0 mg/kg/injection, schedule: Q01DX001 (ip), vehicle: carboxymethylcellulose (CMC) 95 % of control | endpoint: mean survival time, dose: 400.0 mg/kg/injection, schedule: Q01DX001 (ip), vehicle: carboxymethylcellulose (CMC) 113 % of control

O=[N+]([O-])c1ccc(Oc2nc(Cl)nc(Oc3ccc([N+](=O)[O-])cc3)n2)cc1
inactive: endpoint: mean survival time, dose: 25.0 mg/kg/injection, schedule: Q04DX003 (ip), vehicle: Klucel (hydroxypropylcellulose) (HPC) 93 % of control | endpoint: mean survival time, dose: 50.0 mg/kg/injection, schedule: Q04DX003 (ip), vehicle: Klucel (hydroxypropylcellulose) (HPC) 93 % of control | endpoint: mean survival time, dose: 100.0 mg/kg/injection, schedule: Q04DX003 (ip), vehicle: Klucel (hydroxypropylcellulose) (HPC) 86 % of control

COc1cc2c(c(OC)c1OC)-c1c(cc3c(c1OC)OCO3)CC(C)C(C)(O)C2OC(=O)c1ccccc1 (configuration not stated)
inactive: endpoint: median survival time, dose: 25.0 mg/kg/injection, schedule: Q01DX009 (ip), vehicle: saline + Tween-80 + alcohol 100 % of control | endpoint: median survival time, dose: 50.0 mg/kg/injection, schedule: Q01DX009 (ip), vehicle: saline + Tween-80 + alcohol 102 % of control | endpoint: median survival time, dose: 100.0 mg/kg/injection, schedule: Q01DX009 (ip), vehicle: saline + Tween-80 + alcohol 107 % of control | endpoint: median survival time, dose: 200.0 mg/kg/injection, schedule: Q01DX009 (ip), vehicle: saline + Tween-80 + alcohol 102 % of control | endpoint: median survival time, dose: 400.0 mg/kg/injection, schedule: Q01DX009 (ip), vehicle: saline + Tween-80 + alcohol 98 % of control

c1ccc2c(P(c3cccc4ccccc34)c3cccc4ccccc34)cccc2c1
inactive: endpoint: mean survival time, dose: 100.0 mg/kg/injection, schedule: Q01DX001 (ip), vehicle: saline 100 % of control | endpoint: mean survival time, dose: 200.0 mg/kg/injection, schedule: Q01DX001 (ip), vehicle: saline 93 % of control | endpoint: mean survival time, dose: 400.0 mg/kg/injection, schedule: Q01DX001 (ip), vehicle: saline 89 % of control

C[Si](C)(C)/C(=N/Nc1ccc([N+](=O)[O-])cc1[N+](=O)[O-])c1ccccc1
inactive: endpoint: mean survival time, dose: 100.0 mg/kg/injection, schedule: Q01DX001 (ip), vehicle: Klucel (hydroxypropylcellulose) (HPC) 97 % of control | endpoint: mean survival time, dose: 200.0 mg/kg/injection, schedule: Q01DX001 (ip), vehicle: Klucel (hydroxypropylcellulose) (HPC) 95 % of control | endpoint: mean survival time, dose: 400.0 mg/kg/injection, schedule: Q01DX001 (ip), vehicle: Klucel (hydroxypropylcellulose) (HPC) 92 % of control

O=C1NCCS1
inactive: [4] 98 % of control | [5] 104 % of control

CC(=O)OCCN1CC1
inactive: endpoint: mean survival time, dose: 25.0 mg/kg/injection, schedule: Q01DX009 (ip), vehicle: saline 90 % of control

CC1(C)N=C(N)N=C(N)N1c1ccc(CCC(=O)Nc2ccc(S(=O)(=O)F)cc2)c(Cl)c1
inactive: endpoint: mean survival time, dose: 6.25 mg/kg/injection, schedule: Q01DX009 (ip), vehicle: saline 104 % of control | endpoint: mean survival time, dose: 6.25 mg/kg/injection, schedule: Q01DX009 (ip), vehicle: water 112 % of control | endpoint: mean survival time, dose: 12.5 mg/kg/injection, schedule: Q01DX009 (ip), vehicle: saline 120 % of control | endpoint: mean survival time, dose: 12.5 mg/kg/injection, schedule: Q01DX009 (ip), vehicle: water 112 % of control | endpoint: mean survival time, dose: 25.0 mg/kg/injection, schedule: Q01DX009 (ip), vehicle: water 119 % of control | endpoint: mean survival time, dose: 50.0 mg/kg/injection, schedule: Q01DX009 (ip), vehicle: saline 120 % of control

CCN(CC(C)Cl)c1ccc(NC(=O)c2cc(N3CC3)c([N+](=O)[O-])cc2[N+](=O)[O-])cc1 (configuration not stated)
inactive: endpoint: mean survival time, dose: 22.0 mg/kg/injection, schedule: Q01DX001 (ip), vehicle: Klucel (hydroxypropylcellulose) (HPC) 97 % of control | endpoint: mean survival time, dose: 44.0 mg/kg/injection, schedule: Q01DX001 (ip), vehicle: Klucel (hydroxypropylcellulose) (HPC) 97 % of control | endpoint: mean survival time, dose: 88.0 mg/kg/injection, schedule: Q01DX001 (ip), vehicle: Klucel (hydroxypropylcellulose) (HPC) 103 % of control

COc1ccc(COC(=O)Nc2cccc3ccccc23)cc1
inactive: endpoint: mean survival time, dose: 75.0 mg/kg/injection, schedule: Q04DX002 (ip), vehicle: saline with Tween-80 104 % of control | endpoint: mean survival time, dose: 150.0 mg/kg/injection, schedule: Q04DX002 (ip), vehicle: saline with Tween-80 104 % of control | endpoint: mean survival time, dose: 300.0 mg/kg/injection, schedule: Q04DX002 (ip), vehicle: saline with Tween-80 100 % of control

CCOC(=O)CC/C=C\Cc1c(OC)c(C)c2c(c1OC(=O)Nc1ccc(C(C)=O)cc1)C(=O)OC2
inactive: endpoint: mean survival time, dose: 100.0 mg/kg/injection, schedule: Q04DX002 (ip), vehicle: saline with Tween-80 121 % of control

S=C1NC(c2ccccc2)Nc2ccccc21 (configuration not stated)
inactive: [2] 91 % of control | [3] 95 % of control

CCc1c(N=O)c(-c2ccccc2)n(O)[n+]1[O-]
inactive: endpoint: mean survival time, dose: 50.0 mg/kg/injection, schedule: Q01DX009 (ip), vehicle: Klucel (hydroxypropylcellulose) (HPC) 104 % of control | endpoint: mean survival time, dose: 100.0 mg/kg/injection, schedule: Q01DX009 (ip), vehicle: Klucel (hydroxypropylcellulose) (HPC) 101 % of control | endpoint: mean survival time, dose: 200.0 mg/kg/injection, schedule: Q01DX009 (ip), vehicle: Klucel (hydroxypropylcellulose) (HPC) 95 % of control
